In PubChem BioAssay (NCI):
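Following 48 hours of exposure in 96-well plates, responses at five concentrations were used to interpolate endpoints linearly. TGI marks complete inhibition of growth.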

Columns and labels:
Test in all cases: NCI tumour cell line growth inhibition, 48 h
MDA-MB-231 breast = system: MDA-MB-231 breast
EKVX NSCLC = system: EKVX NSCLC
K-562 leukemia = system: K-562 leukemia
HCC-2998 colon = system: HCC-2998 colon
NCI/ADR-RES ovarian = system: NCI/ADR-RES ovarian
IGROV1 ovarian = system: IGROV1 ovarian
DU-145 prostate = system: DU-145 prostate
RXF 393 renal = system: RXF 393 renal
HCT-15 colon = system: HCT-15 colon
CAKI-1 renal = system: CAKI-1 renal
MDA-MB-435 = system: MDA-MB-435
M14 melanoma = system: M14 melanoma
SNB-75 CNS = system: SNB-75 CNS
HOP-62 NSCLC = system: HOP-62 NSCLC
786-0 renal = system: 786-0 renal
UACC-257 melanoma = system: UACC-257 melanoma
U251 CNS = system: U251 CNS
LOX IMVI melanoma = system: LOX IMVI melanoma
SNB-19 CNS = system: SNB-19 CNS
OVCAR-3 ovarian = system: OVCAR-3 ovarian
HCT-116 colon = system: HCT-116 colon
SF-539 CNS = system: SF-539 CNS
SN12C renal = system: SN12C renal
RPMI-8226 leukemia = system: RPMI-8226 leukemia
SF-295 CNS = system: SF-295 CNS
NCI-H23 lung = system: NCI-H23 lung
MDA-N = system: MDA-N
COLO 205 colon = system: COLO 205 colon
A498 renal = system: A498 renal
NCI-H522 lung = system: NCI-H522 lung
MALME-3M melanoma = system: MALME-3M melanoma
SK-OV-3 ovarian = system: SK-OV-3 ovarian
KM12 colon = system: KM12 colon
SR leukemia = system: SR leukemia
A549 NSCLC = system: A549 NSCLC
SW-620 colon = system: SW-620 colon
ACHN renal = system: ACHN renal
UO-31 renal = system: UO-31 renal
HL-60(TB) leukemia = system: HL-60(TB) leukemia
SK-MEL-28 melanoma = system: SK-MEL-28 melanoma
OVCAR-8 ovarian = system: OVCAR-8 ovarian
OVCAR-5 ovarian = system: OVCAR-5 ovarian
SF-268 CNS = system: SF-268 CNS
TK-10 renal = system: TK-10 renal
PC-3 prostate = system: PC-3 prostate
HS 578T breast = system: HS 578T breast
T-47D breast = system: T-47D breast
BT-549 breast = system: BT-549 breast
NCI-H460 lung = system: NCI-H460 lung
NCI-H226 lung = system: NCI-H226 lung
MCF7 breast = system: MCF7 breast
HOP-92 NSCLC = system: HOP-92 NSCLC
SK-MEL-5 melanoma = system: SK-MEL-5 melanoma
HT29 colon = system: HT29 colon
MOLT-4 leukemia = system: MOLT-4 leukemia
OVCAR-4 ovarian = system: OVCAR-4 ovarian
SK-MEL-2 melanoma = system: SK-MEL-2 melanoma
UACC-62 melanoma = system: UACC-62 melanoma
CCRF-CEM leukemia = system: CCRF-CEM leukemia

CCCCCCCCCCc1c2nc(c(CCCCCCCCCC)c3ccc([nH]3)c(CCCCCCCCCC)c3ccc([nH]3)c(CCCCCCCCCC)c3nc1C=C3)C=C2
TGI (MDA-MB-231 breast): > 100 µM | TGI (EKVX NSCLC): > 100 µM | TGI (K-562 leukemia): > 100 µM | TGI (HCC-2998 colon): > 100 µM | TGI (NCI/ADR-RES ovarian): > 100 µM | TGI (IGROV1 ovarian): > 100 µM | TGI (DU-145 prostate): > 100 µM | TGI (RXF 393 renal): > 100 µM | TGI (HCT-15 colon): > 100 µM | TGI (CAKI-1 renal): > 100 µM | TGI (MDA-MB-435): > 100 µM | TGI (M14 melanoma): > 100 µM | TGI (SNB-75 CNS): > 100 µM | TGI (HOP-62 NSCLC): > 100 µM | TGI (786-0 renal): > 100 µM | TGI (UACC-257 melanoma): > 100 µM | TGI (U251 CNS): > 100 µM | TGI (LOX IMVI melanoma): > 100 µM | TGI (SNB-19 CNS): > 100 µM | TGI (OVCAR-3 ovarian): > 100 µM | TGI (HCT-116 colon): > 100 µM | TGI (SF-539 CNS): > 100 µM | TGI (SN12C renal): > 100 µM | TGI (RPMI-8226 leukemia): > 100 µM | TGI (SF-295 CNS): > 100 µM | TGI (NCI-H23 lung): > 100 µM | TGI (MDA-N): > 100 µM | TGI (COLO 205 colon): > 100 µM | TGI (A498 renal): > 100 µM | TGI (NCI-H522 lung): > 100 µM | TGI (MALME-3M melanoma): > 100 µM | TGI (SK-OV-3 ovarian): > 100 µM | TGI (KM12 colon): > 100 µM | TGI (SR leukemia): > 100 µM | TGI (A549 NSCLC): > 100 µM | TGI (SW-620 colon): > 100 µM | TGI (ACHN renal): > 100 µM | TGI (UO-31 renal): > 100 µM | TGI (HL-60(TB) leukemia): > 100 µM | TGI (SK-MEL-28 melanoma): > 100 µM | TGI (OVCAR-8 ovarian): > 100 µM | TGI (OVCAR-5 ovarian): > 100 µM | TGI (SF-268 CNS): > 100 µM | TGI (TK-10 renal): > 100 µM | TGI (PC-3 prostate): > 100 µM | TGI (HS 578T breast): > 100 µM | TGI (T-47D breast): > 100 µM | TGI (BT-549 breast): > 100 µM | TGI (NCI-H460 lung): > 100 µM | TGI (NCI-H226 lung): > 100 µM | TGI (MCF7 breast): > 100 µM | TGI (HOP-92 NSCLC): > 100 µM | TGI (SK-MEL-5 melanoma): > 100 µM | TGI (HT29 colon): > 100 µM | TGI (MOLT-4 leukemia): > 100 µM | TGI (OVCAR-4 ovarian): > 100 µM | TGI (SK-MEL-2 melanoma): > 100 µM | TGI (UACC-62 melanoma): > 100 µM | TGI (CCRF-CEM leukemia): > 100 µM

C=C1CC2(CC(c3ccccc3OC)OC(c3ccccc3OC)C2)OC1=O (stereo not drawn)
TGI (MDA-MB-231 breast): 3.45 µM | TGI (EKVX NSCLC): 27.7 µM | TGI (K-562 leukemia): 5.32 µM | TGI (HCC-2998 colon): 5.92 µM | TGI (NCI/ADR-RES ovarian): 7.73 µM | TGI (IGROV1 ovarian): 3.37 µM | TGI (DU-145 prostate): 20.2 µM | TGI (RXF 393 renal): 3.31 µM | TGI (HCT-15 colon): 4.5 µM | TGI (CAKI-1 renal): 7.13 µM | TGI (MDA-MB-435): 3.56 µM | TGI (M14 melanoma): 3.35 µM | TGI (SNB-75 CNS): 9.09 µM | TGI (HOP-62 NSCLC): 26.8 µM | TGI (786-0 renal): 3.01 µM | TGI (UACC-257 melanoma): 4.23 µM | TGI (U251 CNS): 13.6 µM | TGI (LOX IMVI melanoma): 2.98 µM | TGI (SNB-19 CNS): 14 µM | TGI (OVCAR-3 ovarian): 3.7 µM | TGI (HCT-116 colon): 3.3 µM | TGI (SF-539 CNS): 4.95 µM | TGI (SN12C renal): 4.05 µM | TGI (RPMI-8226 leukemia): 1.45 µM | TGI (SF-295 CNS): 14.4 µM | TGI (NCI-H23 lung): 4.62 µM | TGI (MDA-N): 3.44 µM | TGI (COLO 205 colon): 4.06 µM | TGI (A498 renal): 12.1 µM | TGI (NCI-H522 lung): 2.98 µM | TGI (MALME-3M melanoma): 3.31 µM | TGI (SK-OV-3 ovarian): 25.5 µM | TGI (KM12 colon): 6.65 µM | TGI (SR leukemia): 4.92 µM | TGI (A549 NSCLC): 11.2 µM | TGI (SW-620 colon): 4.03 µM | TGI (ACHN renal): 5.41 µM | TGI (UO-31 renal): 2.85 µM | TGI (HL-60(TB) leukemia): 3.51 µM | TGI (SK-MEL-28 melanoma): 2.17 µM | TGI (OVCAR-8 ovarian): 3.56 µM | TGI (OVCAR-5 ovarian): 18.6 µM | TGI (SF-268 CNS): 6.41 µM | TGI (TK-10 renal): 4.31 µM | TGI (PC-3 prostate): 4.33 µM | TGI (HS 578T breast): 4.9 µM | TGI (T-47D breast): 3.4 µM | TGI (BT-549 breast): 3.12 µM | TGI (NCI-H460 lung): 17.7 µM | TGI (NCI-H226 lung): 19.4 µM | TGI (MCF7 breast): 3.32 µM | TGI (HOP-92 NSCLC): 3.09 µM | TGI (SK-MEL-5 melanoma): 7.05 µM | TGI (HT29 colon): 4.32 µM | TGI (MOLT-4 leukemia): 5.52 µM | TGI (OVCAR-4 ovarian): 11 µM | TGI (SK-MEL-2 melanoma): 3.45 µM | TGI (UACC-62 melanoma): 4.26 µM | TGI (CCRF-CEM leukemia): 4.47 µM
